This passage reports IC50 results from BindingDB's records for doi:10.1111/j.1747-0285.2011.01270.x (National Institutes of Health, 2012).

This test addresses T1, Gag-Pol polyprotein [1148-1435] (Human immunodeficiency virus 1, UniProt P04585).
T1 construct: 1148-1435
Nature of the test: In Vitro Integrase Assay. On the procedure:
The compound were evaluated in biochemical IN (integrase) assay that measure inhibitory potency (IC50 values)against both the 3'-processing(3'P)and strand transfer(ST)reaction.

The term IC50 denotes the concentration that gives 50% inhibition. A higher IC50 goes with a need for much substance. In turn, `Cc1c2c(c(O)c(=O)n1C)C(=O)N(Cc1ccc(F)c(Cl)c1)C2=O` [Bicyclic hydroxy-1H-pyrrolopyridine-trione, 5a] gave an IC50 of 6.7 µM.
In turn, `Cc1c2c(c(O)c(=O)n1-c1ccccc1)C(=O)N(Cc1ccc(F)c(Cl)c1)C2=O` [Bicyclic hydroxy-1H-pyrrolopyridine-trione, 5b] came in with an IC50 of 6.4 µM. The IC50 values of the last two molecules are within 1.5-fold of each other.
As to `CC(C)Cc1c2c(c(O)c(=O)n1C(C)C)C(=O)N(Cc1ccc(F)c(Cl)c1)C2=O` [Bicyclic hydroxy-1H-pyrrolopyridine-trione, 5c], half-maximal inhibition (IC50) required 21.6 µM.
For `CC(=O)OCc1c2c(c(O)c(=O)n1C(C)C)C(=O)N(Cc1ccc(F)c(Cl)c1)C2=O` [Bicyclic hydroxy-1H-pyrrolopyridine-trione, 5d], inhibition was half-maximal at 15.6 µM (IC50).
`COC(=O)CCc1c2c(c(O)c(=O)n1C(C)C)C(=O)N(Cc1ccc(F)c(Cl)c1)C2=O` [Bicyclic hydroxy-1H-pyrrolopyridine-trione, 5e] returned an IC50 of 7.1 µM.
Consider `CC(=O)OCc1[nH]c(=O)c(O)c2c1C(=O)N(Cc1ccc(F)c(Cl)c1)C2=O` [Bicyclic hydroxy-1H-pyrrolopyridine-trione, 5f], for which the IC50 amounted to 12.3 µM.
`O=C1c2c(CO)[nH]c(=O)c(O)c2C(=O)N1Cc1ccc(F)c(Cl)c1` [Bicyclic hydroxy-1H-pyrrolopyridine-trione, 5g] returned a half-maximal inhibitory concentration (IC50) of 6.5 µM. This IC50 is about 1.9-fold lower than that of the molecule before.
